Experimental findings from patent US12698507B2, “Methods and compositions for conferring and/or enhancing herbicide tolerance using protoporphyrinogen IX oxidase of various cyanobacteria or variant thereof” (FarmHannong Co., Ltd., priority 2019, dated 2026) are described below.

Each structure is given as a SMILES string. Like-named read-outs stand apart in the source and are kept apart here. A value given as a limit tells only on which side of the number the result lay.

The target in assay [1] is Thermosynechococcus vulcanus NIES-2134 protoporphyrinogen IX oxidase CyPPO18 (SEQ ID NO: 3) variant V165S (MBP fusion) (Thermosynechococcus vestitus, UniProt Q8DLV2, V165S). In words: PPO enzyme inhibition assay (IC50 for herbicides), CyPPO18 V165S fused to MBP. Type of assay: biochemical. Particulars: 50 μM protoporphyrinogen IX, pH 7.5, room temperature, 30 min.
The target in assay [2] is Thermosynechococcus vulcanus NIES-2134 protoporphyrinogen IX oxidase CyPPO18 (SEQ ID NO: 3) variant R89A (MBP fusion) (Thermosynechococcus vestitus, UniProt Q8DLV2, R89A). Nature of the assay: PPO enzyme inhibition assay (IC50 for herbicides), CyPPO18 R89A fused to MBP. Type of assay: biochemical. Particulars: 50 μM protoporphyrinogen IX, pH 7.5, room temperature, 30 min.

Assay [3] relates to PPO-deficient BT3 E. coli (ΔPPO) transformed with CyPPO19 variant V165C+F360I (Thermosynechococcus elongatus PKUAC-SCTE542, SEQ ID NO: 1). In words: Herbicide tolerance test in E. coli, CyPPO19 V165C+F360I. Particulars: LB agar, 0 to 2,000 μM herbicide, 37° C., 16-20 hours. Type of assay: cell-based. From the text:
(§1) To enhance the PPO-inhibiting herbicide resistance of CyPPO19 and CyPPO18, PPO variant genes of the above example 2 were constructed. They were transformed to BT3 (ΔPPO) strain which is deficient of PPO activity and cultured in LB media with PPO-inhibiting herbicide, thereby examining whether growth of transformed BT3 was not inhibited.
(§2) BT3 competent cells were transformed with the pET303-CyPPO19 (wild type), pET303-CyPPO18 (wild type) plasmids, and those with a mutation(s) constructed (refer to example 2) via heat shock method, and were cultured in LB agar media containing ampicillin.
(§3) Single colony transformed with each CyPPO gene was cultured in 3 mL of LB broth (LPSS) containing ampicillin for more than 12 hours, and then was subcultured in LB broth until absorbance (OD600) reached 0.5 to 1. Then, it was diluted with LB broth to OD600=0.5. Again, the diluted solution was serially diluted 4 times by a factor of one tenth. […]
(§4) Then, 10 μL of each diluted solution of E. coli was dropped on the plate and cultured at 37° C. under dark for 16-20 hours. PPO-inhibiting herbicide resistance was evaluated with the extent of E. coli growth containing each gene was observed.
(§5) The extent of herbicide resistance was evaluated by the relative growth of variants to that of wild type, and listed in Tables 9 and 10 and FIGS. 3 to 32. […]

Assay [4] has as its target Thermosynechococcus elongatus PKUAC-SCTE542 protoporphyrinogen IX oxidase CyPPO19 (SEQ ID NO: 1) variant A167L (MBP fusion) (Thermosynechococcus sichuanensis, UniProt A0A7D6JSC1, A167L). In words: biochemical. Particulars: 50 μM protoporphyrinogen IX, pH 7.5, room temperature, 30 min, 10,000 means equivalent to or higher.
In assay [5] the target is Thermosynechococcus vulcanus NIES-2134 protoporphyrinogen IX oxidase CyPPO18 (SEQ ID NO: 3) variant A167L (MBP fusion) (Thermosynechococcus vestitus, UniProt Q8DLV2, A167L). In words: PPO enzyme inhibition assay (IC50 for herbicides), CyPPO18 A167L fused to MBP. Format: biochemical. Particulars: 50 μM protoporphyrinogen IX, pH 7.5, room temperature, 30 min.
Assay [6] concerns PPO-deficient BT3 E. coli (ΔPPO) transformed with CyPPO19 variant R89A+F360M (Thermosynechococcus elongatus PKUAC-SCTE542, SEQ ID NO: 1). In words: Herbicide tolerance test in E. coli, CyPPO19 R89A+F360M. Particulars: LB agar, 0 to 2,000 μM herbicide, 37° C., 16-20 hours. Format: cell-based.
From the text: as §1, §2, §3, §4, §5

For assay [7], the target named is Thermosynechococcus elongatus PKUAC-SCTE542 protoporphyrinogen IX oxidase CyPPO19 (SEQ ID NO: 1) variant V165C (MBP fusion) (Thermosynechococcus sichuanensis, UniProt A0A7D6JSC1, V165C). Nature of the assay: PPO enzyme inhibition assay (IC50 for herbicides), CyPPO19 V165C fused to MBP. Format: biochemical.
Sequence of Thermosynechococcus elongatus PKUAC-SCTE542 protoporphyrinogen IX oxidase CyPPO19 (SEQ ID NO: 1) variant V165C (MBP fusion) (A0A7D6JSC1 entry or part of it V165C): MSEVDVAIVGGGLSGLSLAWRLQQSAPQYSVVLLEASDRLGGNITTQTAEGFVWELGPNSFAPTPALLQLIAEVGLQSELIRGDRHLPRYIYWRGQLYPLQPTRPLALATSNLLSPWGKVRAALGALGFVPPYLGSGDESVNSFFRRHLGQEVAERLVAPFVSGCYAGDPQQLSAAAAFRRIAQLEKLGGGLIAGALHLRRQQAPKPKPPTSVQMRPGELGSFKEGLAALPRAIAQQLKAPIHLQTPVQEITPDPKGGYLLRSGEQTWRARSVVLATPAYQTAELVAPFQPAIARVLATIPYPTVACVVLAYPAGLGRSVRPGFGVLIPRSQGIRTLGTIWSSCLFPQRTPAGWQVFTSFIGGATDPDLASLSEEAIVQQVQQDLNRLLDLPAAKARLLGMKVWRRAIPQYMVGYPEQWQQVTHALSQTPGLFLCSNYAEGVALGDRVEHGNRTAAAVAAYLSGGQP

Sequence of Thermosynechococcus vulcanus NIES-2134 protoporphyrinogen IX oxidase CyPPO18 (SEQ ID NO: 3) variant A167L (MBP fusion) (Q8DLV2 entry or part of it A167L): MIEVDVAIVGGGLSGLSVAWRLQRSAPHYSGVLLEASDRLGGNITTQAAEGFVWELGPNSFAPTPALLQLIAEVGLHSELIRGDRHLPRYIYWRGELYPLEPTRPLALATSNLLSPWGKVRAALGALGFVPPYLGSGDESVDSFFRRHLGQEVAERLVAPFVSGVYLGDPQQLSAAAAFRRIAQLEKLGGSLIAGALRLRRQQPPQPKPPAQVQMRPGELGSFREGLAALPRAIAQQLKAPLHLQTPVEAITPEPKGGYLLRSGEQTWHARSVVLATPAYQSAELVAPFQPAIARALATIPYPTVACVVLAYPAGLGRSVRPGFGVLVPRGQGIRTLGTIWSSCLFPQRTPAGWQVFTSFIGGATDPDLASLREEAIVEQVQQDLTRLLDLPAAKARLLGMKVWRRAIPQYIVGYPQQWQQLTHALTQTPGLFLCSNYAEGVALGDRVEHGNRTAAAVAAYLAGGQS
Sequence of Thermosynechococcus vulcanus NIES-2134 protoporphyrinogen IX oxidase CyPPO18 (SEQ ID NO: 3) variant V165S (MBP fusion) (Q8DLV2 entry or part of it V165S): as the sequence (Q8DLV2 entry or part of it A167L) above, with V165S, L167A counted along it
Sequence of Thermosynechococcus vulcanus NIES-2134 protoporphyrinogen IX oxidase CyPPO18 (SEQ ID NO: 3) variant R89A (MBP fusion) (Q8DLV2 entry or part of it R89A): as the sequence (Q8DLV2 entry or part of it A167L) above, with R89A, L167A counted along it
Sequence of Thermosynechococcus elongatus PKUAC-SCTE542 protoporphyrinogen IX oxidase CyPPO19 (SEQ ID NO: 1) variant A167L (MBP fusion) (A0A7D6JSC1 entry or part of it A167L): as the sequence (A0A7D6JSC1 entry or part of it V165C) above, with C165V, A167L counted along it

By IC50 is commonly meant the midpoint of a concentration-inhibition curve. With `Cc1nn(-c2cc(CC(Cl)C(=O)O)c(Cl)cc2F)c(=O)n1C(F)F` (centres unmarked) [Carfentrazone], the IC50 in assay [1] is 2.23 µM; in assay [2] it was 0.872 µM; in assay [4] it was at least 10 µM; in assay [5], 4.01 µM; in assay [7] (CyPPO19 V165C, 50 μM protoporphyrinogen IX, pH 7.5, room temperature, 30 min) it was 3.09 µM. The “tolerance level (relative growth of variant to wild type)” value in assay [3] and in assay [6] was “+” throughout.
Regarding `CCOc1cc(Oc2ccc(C(F)(F)F)cc2Cl)ccc1[N+](=O)[O-]` [Oxyfluorfen], the IC50 stood at 1.49 µM in assay [1]; 0.491 µM in assay [2]; 5.26 µM in assay [4] (read-out: IC50); 2.81 µM in assay [5]; 3.21 µM in assay [7]. The “tolerance level (relative growth of variant to wild type)” value in assay [3] and in assay [6] was “+” throughout.
